Measured values from publication PMC8777717, “Thiolation of Myco-Synthesized Fe3O4-NPs: A Novel Promising Tool for Penicillium expansium Laccase Immobilization to Decolorize Textile Dyes and as an Application for Anticancer Agent” (Journal of Fungi, 2022).

Experiments:
P. expansium laccase [1] = tested on: T1, P. expansium laccase; experiment: spectrophotometric oxidation assay at […] nm, Lineweaver-Burk; assay type: biochemical, Penicillium expansum; conditions: free enzyme; 0.2-0.8 mM substrate; 0.1 M sodium acetate pH 5.0, 40 °C
T1 construct: gene EC 1.10.3.2; native enzyme purified from culture filtrate (ABTS-supplemented medium; ammonium sulfate, DEAE-cellulose, Sephadex G-200); single SDS-PAGE band ~60 kDa; free (soluble) enzyme

P. expansium laccase [2] = tested on: T1, P. expansium laccase; experiment: Lineweaver-Burk; assay type: biochemical, Penicillium expansum; conditions: free enzyme; 0.2-0.8 mM substrate; 0.1 M sodium acetate pH 5.0, 40 °C
Text: Lineweaver-Burk on P. expansium laccase

## CCn1c(=NN=c2sc3cc(S(=O)(=O)O)ccc3n2CC)sc2cc(S(=O)(=O)O)ccc21 [ABTS]
P. expansium laccase [1]
  Km: 4150 µM

## Oc1ccccc1O [catechol]
P. expansium laccase [2]
  Km: 1310 µM
